Measured values taken from patent US11331327B2, “Antibacterial use of halogenated salicylanilides” (UNION therapeutics A/S, priority 2014, dated 2022).
≈ marks a conversion by molar mass, not a printed value. Read-outs that look alike come from different tables or passages of the source.

Tested on: S. aureus clinical isolates and S. aureus ATCC 29213
Test: MIC assay according to CLSI criteria, Example 2, S. aureus strains
Format: cell-based, Staphylococcus aureus
Settings: Staphylococcus aureus, read-out: MIC
Description: Strains were conserved in Luria Bertani (LB) Broth (S. aureus) or Brain Heart Infusion (BHI) (S. pyogenes) supplemented with glycerol 15% (v/v) at −80° C., and reactivated by isolation on LB (S. aureus) or BHI (S. pyogenes) agar plates. Strains were cultivated in Mueller Hinton (MH) Broth-cation adjusted (S. aureus) or BHI (S. pyogenes). All strains were cultivated aerobically (microaerobically for S. pyogenes strains) at 37° C.
Bacterial cultures were stopped in their exponential growth phase and plates were inoculated with the approximate concentration of 5×10^5 cells per well. Plates were incubated at 37° C. for 18 hours (S. aureus) or 24 hours (S. pyogenes).

O=C(Nc1ccc([N+](=O)[O-])cc1Cl)c1cc(Cl)ccc1O [Niclosamide, 5-chloro-N-(2-chloro-4-nitrophenyl)-2-hydroxybenz-amide]
MIC (ATCC 29213 / MRSA, strain MRSA 12): 0.5 µg/mL (≈ 1.53 µM)
MIC (ATCC 29213 / MRSA, strain MRSA 13): 0.25 µg/mL (≈ 0.764 µM)
MIC (ATCC 29213 / MRSA, strain MRSA 14): 0.25 µg/mL (≈ 0.764 µM)
MIC (ATCC 29213 / MRSA, strain MRSA 15): 0.25 µg/mL (≈ 0.764 µM)
MIC (ATCC 29213 / MRSA, strain MRSA 16): 0.25 µg/mL (≈ 0.764 µM)
MIC (ATCC 29213 / MRSA, strain MRSA 17): 0.25 µg/mL (≈ 0.764 µM)
MIC (ATCC 29213 / MRSA, strain MRSA 18): 0.25 µg/mL (≈ 0.764 µM)
MIC (ATCC 29213 / MRSA, strain MRSA 19): 0.25 µg/mL (≈ 0.764 µM)
MIC (ATCC 29213 / MRSA, strain MRSA 20): 0.25 µg/mL (≈ 0.764 µM)
MIC (ATCC 29213 / MRSA, strain MRSA 21): 0.25 µg/mL (≈ 0.764 µM)
MIC (ATCC 29213 / MRSA, strain MRSA 22): 0.25 µg/mL (≈ 0.764 µM)
MIC (ATCC 29213 / MRSA, strain MRSA 23): 0.25 µg/mL (≈ 0.764 µM)
MIC (ATCC 29213 / MRSA, strain MRSA 24): 0.25 µg/mL (≈ 0.764 µM)
MIC (ATCC 29213 / MRSA, strain MRSA 25): 0.25 µg/mL (≈ 0.764 µM)
MIC (ATCC 29213 / MRSA, strain MRSA 26): 0.5 µg/mL (≈ 1.53 µM)
MIC (ATCC 29213 / MRSA, strain MRSA 27): 0.5 µg/mL (≈ 1.53 µM)
MIC (ATCC 29213 / MRSA, strain MRSA 27b): 0.25 µg/mL (≈ 0.764 µM)
MIC (ATCC 29213 / MRSA, strain MRSA 28): 0.25 µg/mL (≈ 0.764 µM)
MIC (ATCC 29213 / MRSA, strain MRSA 29): 0.5 µg/mL (≈ 1.53 µM)
MIC (ATCC 29213 / MRSA, strain MRSA 30): 0.25 µg/mL (≈ 0.764 µM)
MIC (ATCC 29213 / MRSA, strain MRSA 31): 0.25 µg/mL (≈ 0.764 µM)
MIC (ATCC 29213 / MRSA, strain MRSA 32): 0.25 µg/mL (≈ 0.764 µM)
MIC (ATCC 29213 / MRSA, strain MRSA 33): 0.25 µg/mL (≈ 0.764 µM)
MIC (ATCC 29213 / MRSA, strain MRSA 34): 0.25 µg/mL (≈ 0.764 µM)
MIC (ATCC 29213 / MRSA, strain MRSA 35): 0.25 µg/mL (≈ 0.764 µM)
MIC (ATCC 29213 / MRSA, strain MRSA 36): 0.25 µg/mL (≈ 0.764 µM)
MIC (ATCC 29213 / MRSA, strain MRSA 37): 0.25 µg/mL (≈ 0.764 µM)
MIC (ATCC 29213 / MRSA, strain MRSA 38): 0.25 µg/mL (≈ 0.764 µM)
MIC (ATCC 29213 / MRSA, strain MRSA 39): 0.25 µg/mL (≈ 0.764 µM)
MIC (ATCC 29213 / MRSA, strain MRSA 40): 0.25 µg/mL (≈ 0.764 µM)
MIC (ATCC 29213 / MRSA, strain MRSA 41): 0.25 µg/mL (≈ 0.764 µM)
MIC (ATCC 29213 / MRSA, strain MRSA 42): 0.25 µg/mL (≈ 0.764 µM)
MIC (ATCC 29213 / MRSA, strain MRSA 43): 0.25 µg/mL (≈ 0.764 µM)
MIC (ATCC 29213 / MRSA, strain MRSA 44): 0.25 µg/mL (≈ 0.764 µM)
MIC (ATCC 29213 / MRSA, strain MRSA 45): 0.25 µg/mL (≈ 0.764 µM)
MIC (ATCC 29213 / MRSA, strain MRSA 46): 0.25 µg/mL (≈ 0.764 µM)
MIC (ATCC 29213 / MRSA, strain MRSA 47): 0.25 µg/mL (≈ 0.764 µM)
MIC (ATCC 29213 / MRSA, strain MRSA 48): 0.25 µg/mL (≈ 0.764 µM)
MIC (ATCC 29213 / MRSA, strain MRSA 49): 0.25 µg/mL (≈ 0.764 µM)
MIC (ATCC 29213 / MRSA, strain MRSA 50): 0.25 µg/mL (≈ 0.764 µM)
MIC (ATCC 29213 / MRSA, strain MRSA 51): 0.125 µg/mL (≈ 0.382 µM)
MIC (ATCC 29213 / MRSA, strain MRSA 52): 0.25 µg/mL (≈ 0.764 µM)
MIC (ATCC 29213 / MRSA, strain MRSA 53): 0.25 µg/mL (≈ 0.764 µM)
MIC (ATCC 29213 / MRSA, strain MRSA 54): 0.25 µg/mL (≈ 0.764 µM)
MIC (ATCC 29213 / MRSA, strain MRSA 55): 0.25 µg/mL (≈ 0.764 µM)
MIC (ATCC 29213 / MRSA, strain MRSA 56): 0.25 µg/mL (≈ 0.764 µM)
MIC (ATCC 29213 / MRSA, strain MRSA 57): 0.25 µg/mL (≈ 0.764 µM)
MIC (ATCC 29213 / MRSA, strain MRSA 58): 0.25 µg/mL (≈ 0.764 µM)
MIC (ATCC 29213 / MRSA, strain MRSA 59): 0.25 µg/mL (≈ 0.764 µM)
MIC (ATCC 29213 / MRSA, strain MRSA 60): 0.25 µg/mL (≈ 0.764 µM)
MIC (ATCC 29213 / MRSA, strain MRSA 61): 0.25 µg/mL (≈ 0.764 µM)
MIC (ATCC 29213 / MRSA, strain MRSA 62): 0.25 µg/mL (≈ 0.764 µM)
MIC (ATCC 29213 / MRSA, strain MRSA 63): 0.25 µg/mL (≈ 0.764 µM)
MIC (ATCC 29213 / MRSA, strain MRSA 64): 0.25 µg/mL (≈ 0.764 µM)
MIC (ATCC 29213 / MRSA, strain MRSA 65): 0.25 µg/mL (≈ 0.764 µM)
MIC (ATCC 29213 / MRSA, strain MRSA 66): 0.25 µg/mL (≈ 0.764 µM)
MIC (ATCC 29213 / MRSA, strain MRSA 67): 0.25 µg/mL (≈ 0.764 µM)
MIC (ATCC 29213 / MRSA, strain MRSA 68): 0.25 µg/mL (≈ 0.764 µM)
MIC (ATCC 29213 / MRSA, strain MRSA 69): 0.25 µg/mL (≈ 0.764 µM)
MIC (ATCC 29213 / MRSA, strain MRSA 70): 0.125 µg/mL (≈ 0.382 µM)
MIC (ATCC 29213 / MRSA, strain MRSA 71): 0.25 µg/mL (≈ 0.764 µM)
MIC (ATCC 29213 / MRSA, strain MRSA 72): 0.25 µg/mL (≈ 0.764 µM)
MIC (ATCC 29213 / MRSA, strain MRSA 73): 0.5 µg/mL (≈ 1.53 µM)
MIC (ATCC 29213 / MRSA, strain MRSA 74): 0.25 µg/mL (≈ 0.764 µM)
MIC (ATCC 29213 / MRSA, strain MRSA 75): 0.5 µg/mL (≈ 1.53 µM)
MIC (ATCC 29213 / MRSA, strain MRSA 76): 0.25 µg/mL (≈ 0.764 µM)
MIC (ATCC 29213 / MRSA, strain MRSA 77): 0.25 µg/mL (≈ 0.764 µM)
MIC (ATCC 29213 / MRSA, strain MRSA 78): 0.5 µg/mL (≈ 1.53 µM)
MIC (ATCC 29213 / MRSA, strain MRSA 79): 0.25 µg/mL (≈ 0.764 µM)
MIC (ATCC 29213 / MRSA, strain MRSA 80): 0.5 µg/mL (≈ 1.53 µM)
MIC (ATCC 29213 / MRSA, strain MRSA 81): 0.5 µg/mL (≈ 1.53 µM)
MIC (ATCC 29213 / MRSA, strain MRSA 82): 0.25 µg/mL (≈ 0.764 µM)
MIC (ATCC 29213 / MRSA, strain MRSA 83): 0.5 µg/mL (≈ 1.53 µM)
MIC (ATCC 29213 / MRSA, strain MRSA 84): 0.25 µg/mL (≈ 0.764 µM)
MIC (ATCC 29213 / MRSA, strain MRSA 85): 0.5 µg/mL (≈ 1.53 µM)
MIC (ATCC 29213 / MRSA, strain MRSA 86): 0.25 µg/mL (≈ 0.764 µM)
MIC (ATCC 29213 / MRSA, strain MRSA 87): 0.25 µg/mL (≈ 0.764 µM)
MIC (ATCC 29213 / MRSA, strain MRSA 88): 0.25 µg/mL (≈ 0.764 µM)
MIC (ATCC 29213 / MRSA, strain MRSA 89): 0.5 µg/mL (≈ 1.53 µM)
MIC (ATCC 29213 / MRSA, strain MRSA 90): 0.5 µg/mL (≈ 1.53 µM)
MIC (ATCC 29213 / MRSA, strain MRSA 91): 0.25 µg/mL (≈ 0.764 µM)
MIC (ATCC 29213 / MRSA, strain MRSA 92): 0.25 µg/mL (≈ 0.764 µM)
MIC (ATCC 29213 / MRSA, strain MRSA 93): 0.25 µg/mL (≈ 0.764 µM)
MIC (ATCC 29213 / MRSA, strain MRSA 94): 0.25 µg/mL (≈ 0.764 µM)
MIC (ATCC 29213 / MRSA, strain MRSA 95): 0.25 µg/mL (≈ 0.764 µM)
MIC (ATCC 29213 / MRSA, strain MRSA 96): 0.25 µg/mL (≈ 0.764 µM)
MIC (ATCC 29213 / MRSA, strain MRSA 97): 0.25 µg/mL (≈ 0.764 µM)
MIC (ATCC 29213 / MRSA, strain MRSA 98): 0.5 µg/mL (≈ 1.53 µM)
MIC (ATCC 29213 / MRSA, strain MRSA 99): 0.25 µg/mL (≈ 0.764 µM)
MIC (ATCC 29213 / MRSA, strain MRSA 100): 0.25 µg/mL (≈ 0.764 µM)
MIC (ATCC 29213 / MRSA, strain MRSA 101): 0.5 µg/mL (≈ 1.53 µM)
MIC (ATCC 29213 / MRSA, strain MRSA 102): 0.25 µg/mL (≈ 0.764 µM)
MIC (ATCC 29213 / MRSA, strain MRSA 103): 0.25 µg/mL (≈ 0.764 µM)
MIC (ATCC 29213 / MRSA, strain MRSA 104): 0.5 µg/mL (≈ 1.53 µM)
MIC (ATCC 29213 / MRSA, strain MRSA 105): 0.25 µg/mL (≈ 0.764 µM)
MIC (ATCC 29213 / MRSA, strain MRSA 106): 0.25 µg/mL (≈ 0.764 µM)
MIC (ATCC 29213 / MRSA, strain MRSA 107): 0.25 µg/mL (≈ 0.764 µM)
MIC (ATCC 29213 / MRSA, strain MRSA 108): 0.25 µg/mL (≈ 0.764 µM)
MIC (ATCC 29213 / MRSA, strain MRSA 109): 0.25 µg/mL (≈ 0.764 µM)
MIC (ATCC 29213 / MRSA, strain MRSA 110): 0.25 µg/mL (≈ 0.764 µM)
MIC (ATCC 29213 / MRSA, strain MRSA 111): 0.5 µg/mL (≈ 1.53 µM)
MIC (ATCC 29213 / MRSA, strain MRSA 112): 0.25 µg/mL (≈ 0.764 µM)
MIC (ATCC 29213 / MRSA, strain MRSA 113): 0.25 µg/mL (≈ 0.764 µM)
MIC (ATCC 29213 / MSSA, strain MSSA 01): 0.5 µg/mL (≈ 1.53 µM)
MIC (ATCC 29213 / MSSA, strain MSSA 02): 0.25 µg/mL (≈ 0.764 µM)
MIC (ATCC 29213 / NEWMAN, strain Newman): 0.25 µg/mL (≈ 0.764 µM)
